Laboratory results taken from PMC2248166, “Quantitative peptide binding motifs for 19 human and mouse MHC class I molecules derived using positional scanning combinatorial peptide libraries” (Immunome Research, 2008).
Where a SMILES comes first, the peptide text is derived from it.

Key:
HLA B*1501 = HLA B*1501 (Homo sapiens, UniProt P01889, A329T/A93T/A95T/C349S/D201E/D98Y/E187L/E204Q/E69M/E70A/K202T/N87E/Q94N/R155S/R180W/S121R/S35A/S48A/V306I/V36M/Y140S/Y91S); assay: biochemical; type: binding
HLA B*1503 = HLA B*1503 (Homo sapiens, UniProt P01889, A329T/A93T/A95T/C349S/D201E/D98Y/E187L/E204Q/K202T/N87E/Q94N/R155S/R180L/S121R/S35A/V306I/V36M/Y140S/Y91S); assay: biochemical; type: binding

SMILES: CSCC[C@H](NC(=O)[C@H](Cc1ccc(O)cc1)NC(=O)[C@H](CCCCN)NC(=O)[C@H](CO)NC(=O)[C@H](Cc1ccccc1)NC(=O)[C@H](C)NC(=O)[C@@H](N)Cc1ccc(O)cc1)C(=O)N[C@@H](CO)C(=O)N[C@@H](Cc1ccccc1)C(=O)O [3102.1180] (H-YAFSKYMSF-OH)
- IC50 (HLA B*1501): 9 nM
- IC50 (HLA B*1503): 1.8 nM

SMILES: CSCC[C@H](NC(=O)[C@@H](N)C(C)C)C(=O)N[C@H](C(=O)N[C@H](C(=O)N[C@@H](CO)C(=O)N[C@@H](CCCCN)C(=O)N1CCC[C@H]1C(=O)N[C@@H](CC(C)C)C(=O)N[C@@H](Cc1ccccc1)C(=O)O)[C@@H](C)O)C(C)C [3102.1148] (H-VMVTSKPLF-OH)
- IC50 (HLA B*1501): 16 nM
- IC50 (HLA B*1503): 8.8 nM

SMILES: CC[C@H](C)[C@H](NC(=O)[C@H](CCSC)NC(=O)[C@H](CC(C)C)NC(=O)[C@H](CCSC)NC(=O)[C@@H](N)CCSC)C(=O)NCC(=O)N[C@@H](CC(N)=O)C(=O)N[C@@H](Cc1ccc(O)cc1)C(=O)N[C@@H](Cc1ccccc1)C(=O)O [3102.1301] (H-MMLMIGNYF-OH)
- IC50 (HLA B*1501): 33 nM
- IC50 (HLA B*1503): 0.2 nM

SMILES: CSCC[C@H](NC(=O)[C@H](CO)NC(=O)[C@H](CCSC)NC(=O)[C@@H](N)CCSC)C(=O)N[C@@H](Cc1ccc(O)cc1)C(=O)NCC(=O)N[C@@H](CCCCN)C(=O)N[C@@H](C)C(=O)N[C@@H](Cc1ccccc1)C(=O)O [3102.1173] (H-MMSMYGKAF-OH)
- IC50 (HLA B*1501): 3.2 nM
- IC50 (HLA B*1503): 2.6 nM

SMILES: CC[C@H](C)[C@H](N)C(=O)N[C@@H](CO)C(=O)N[C@H](C(=O)N[C@@H](CC(C)C)C(=O)N[C@H](C(=O)NCC(=O)N[C@@H](CO)C(=O)N[C@@H](CO)C(=O)N[C@H](C(=O)O)[C@@H](C)CC)[C@@H](C)O)C(C)C [3102.1072] (H-ISVLTGSSI-OH)
- IC50 (HLA B*1501): 34 nM
- IC50 (HLA B*1503): 25 nM

SMILES: CC[C@H](C)[C@H](NC(=O)[C@H](Cc1c[nH]cn1)NC(=O)[C@H](CCC(N)=O)NC(=O)[C@H](CO)NC(=O)[C@H](CCC(=O)O)NC(=O)[C@@H](N)CC(C)C)C(=O)N[C@H](C(=O)N[C@@H](CO)C(=O)N[C@@H](Cc1ccccc1)C(=O)O)[C@@H](C)CC [3102.1322] (H-LESQHIISF-OH)
- IC50 (HLA B*1501): 57 nM
- IC50 (HLA B*1503): 28 nM

SMILES: CC[C@H](C)[C@H](NC(=O)[C@H](Cc1c[nH]cn1)NC(=O)[C@H](CCCCN)NC(=O)[C@H](CC(N)=O)NC(=O)[C@H](CCSC)NC(=O)[C@@H](N)Cc1ccccc1)C(=O)N[C@@H](CC(C)C)C(=O)N[C@@H](CO)C(=O)N[C@@H](Cc1ccc(O)cc1)C(=O)O [3102.1258] (H-FMNKHILSY-OH)
- IC50 (HLA B*1501): 1.7 nM
- IC50 (HLA B*1503): 0.74 nM

SMILES: CC(C)C[C@H](NC(=O)[C@H](CC(C)C)NC(=O)[C@@H](NC(=O)[C@H](CO)NC(=O)[C@H](Cc1ccc(O)cc1)NC(=O)[C@H](CC(C)C)NC(=O)[C@@H](N)CCC(N)=O)[C@@H](C)O)C(=O)N[C@@H](CO)C(=O)N[C@@H](Cc1ccccc1)C(=O)O [3102.1175] (H-QLYSTLLSF-OH)
- IC50 (HLA B*1501): 3 nM
- IC50 (HLA B*1503): 0.57 nM

SMILES: CC(C)C[C@H](NC(=O)[C@H](C)N)C(=O)N[C@@H](CCCNC(=N)N)C(=O)N1CCC[C@H]1C(=O)N[C@@H](CO)C(=O)N[C@@H](CO)C(=O)N[C@@H](CCC(N)=O)C(=O)N[C@H](C(=O)N[C@@H](Cc1ccccc1)C(=O)O)C(C)C [3102.1320] (H-ALRPSSQVF-OH)
- IC50 (HLA B*1501): 1.5 nM
- IC50 (HLA B*1503): 0.095 nM

SMILES: CC[C@H](C)[C@H](NC(=O)[C@H](CCC(N)=O)NC(=O)[C@@H](N)CO)C(=O)N[C@H](C(=O)N[C@H](C(=O)N[C@@H](CC(C)C)C(=O)N[C@H](C(=O)N[C@@H](C)C(=O)N[C@@H](Cc1ccccc1)C(=O)O)[C@@H](C)O)[C@@H](C)O)[C@@H](C)CC [3102.1111] (H-SQIITLTAF-OH)
- IC50 (HLA B*1501): 1 nM
- IC50 (HLA B*1503): 0.79 nM

SMILES: CC[C@H](C)[C@H](NC(=O)[C@H](CO)NC(=O)[C@@H](N)CC(C)C)C(=O)N[C@@H](CC(N)=O)C(=O)N[C@@H](CO)C(=O)N[C@@H](CO)C(=O)N[C@@H](Cc1ccccc1)C(=O)N[C@@H](Cc1ccc(O)cc1)C(=O)N[C@@H](Cc1ccccc1)C(=O)O [3102.1034] (H-LSINSSFYF-OH)
- IC50 (HLA B*1501): 1 nM
- IC50 (HLA B*1503): 4.8 nM

SMILES: CSCC[C@H](NC(=O)[C@H](Cc1c[nH]cn1)NC(=O)[C@H](CCC(N)=O)NC(=O)CNC(=O)[C@@H]1CCCN1C(=O)[C@@H]1CCCN1C(=O)[C@H](C)NC(=O)[C@H](CO)NC(=O)[C@@H](N)CS)C(=O)O [3102.1226] (H-CSAPPGQHM-OH)
- IC50 (HLA B*1501): 53 nM
- IC50 (HLA B*1503): 24 nM

SMILES: CC[C@H](C)[C@H](NC(=O)[C@H](CCC(N)=O)NC(=O)[C@@H](N)CO)C(=O)N[C@@H](CCC(=O)O)C(=O)N[C@H](C(=O)NCC(=O)N[C@H](C(=O)N1CCC[C@H]1C(=O)N[C@@H](Cc1ccccc1)C(=O)O)[C@@H](C)O)[C@@H](C)O [3102.1253] (H-SQIETGTPF-OH)
- IC50 (HLA B*1501): 0.61 nM
- IC50 (HLA B*1503): 1.3 nM

SMILES: C[C@@H](O)[C@H](NC(=O)[C@H](CCCCN)NC(=O)[C@H](Cc1ccc(O)cc1)NC(=O)[C@H](CCC(N)=O)NC(=O)[C@@H](N)CCC(=O)O)C(=O)N[C@@H](CCC(=O)O)C(=O)N[C@@H](CO)C(=O)N[C@@H](Cc1ccccc1)C(=O)N[C@@H](Cc1ccccc1)C(=O)O [3102.1224] (H-EQYKTESFF-OH)
- IC50 (HLA B*1501): 6.6 nM
- IC50 (HLA B*1503): 1.8 nM

SMILES: CC(C)C[C@H](NC(=O)[C@@H]1CCCN1C(=O)[C@H](CC(N)=O)NC(=O)[C@H](C)NC(=O)[C@@H](N)Cc1ccccc1)C(=O)N[C@@H](CO)C(=O)N[C@@H](CC(N)=O)C(=O)N1CCC[C@H]1C(=O)N[C@@H](Cc1ccccc1)C(=O)O [3102.1245] (H-FANPLSNPF-OH)
- IC50 (HLA B*1501): 1.7 nM
- IC50 (HLA B*1503): 1.9 nM

SMILES: CC[C@H](C)[C@H](NC(=O)[C@H](Cc1c[nH]cn1)NC(=O)[C@H](CO)NC(=O)[C@@H](NC(=O)[C@@H](NC(=O)[C@H](Cc1ccc(O)cc1)NC(=O)[C@H](C)NC(=O)[C@H](CCSC)NC(=O)[C@@H](N)Cc1ccccc1)[C@@H](C)O)[C@@H](C)O)C(=O)O [3102.1071] (H-FMAYTTSHI-OH)
- IC50 (HLA B*1501): 133 nM
- IC50 (HLA B*1503): 7.6 nM

SMILES: CC(C)C[C@H](NC(=O)[C@@H](N)CCCNC(=N)N)C(=O)N[C@@H](CC(N)=O)C(=O)N1CCC[C@H]1C(=O)N[C@@H](CCC(=O)O)C(=O)N[C@H](C(=O)N[C@@H](CO)C(=O)N[C@@H](Cc1ccc(O)cc1)C(=O)N[C@@H](Cc1ccccc1)C(=O)O)C(C)C [3102.1097] (H-RLNPEVSYF-OH)
- IC50 (HLA B*1501): 0.3 nM
- IC50 (HLA B*1503): 0.32 nM

SMILES: CC(C)C[C@H](NC(=O)[C@@H](NC(=O)[C@H](CO)NC(=O)[C@@H](NC(=O)[C@H](CC(N)=O)NC(=O)[C@H](CC(C)C)NC(=O)[C@@H](N)CO)[C@@H](C)O)[C@@H](C)O)C(=O)NCC(=O)N[C@@H](Cc1ccccc1)C(=O)O [3102.1051] (H-SLNTSTLGF-OH)
- IC50 (HLA B*1501): 1.7 nM
- IC50 (HLA B*1503): 13 nM

SMILES: CC(C)[C@H](NC(=O)[C@H](CCC(N)=O)NC(=O)[C@@H](N)CO)C(=O)N[C@@H](CCCCN)C(=O)N[C@@H](CS)C(=O)N[C@@H](CS)C(=O)N[C@@H](Cc1c[nH]cn1)C(=O)N[C@@H](Cc1ccc(O)cc1)C(=O)N[C@@H](Cc1ccccc1)C(=O)O [3102.1126] (H-SQVKCCHYF-OH)
- IC50 (HLA B*1501): 0.92 nM
- IC50 (HLA B*1503): 0.92 nM

SMILES: CC(C)C[C@H](NC(=O)[C@H](CO)NC(=O)[C@@H]1CCCN1C(=O)[C@H](CO)NC(=O)[C@H](Cc1ccccc1)NC(=O)[C@H](CO)NC(=O)[C@@H](N)C(C)C)C(=O)N[C@H](C(=O)N[C@@H](Cc1ccccc1)C(=O)O)[C@@H](C)O [3102.1333] (H-VSFSPSLTF-OH)
- IC50 (HLA B*1501): 1.3 nM
- IC50 (HLA B*1503): 1.2 nM

SMILES: CC(C)C[C@H](NC(=O)[C@H](Cc1ccccc1)NC(=O)[C@@H](NC(=O)[C@H](CCCCN)NC(=O)[C@H](CO)NC(=O)[C@@H](N)CO)C(C)C)C(=O)N[C@@H](CCCCN)C(=O)N[C@@H](C)C(=O)N[C@@H](Cc1ccccc1)C(=O)O [3102.0662] (H-SSKVFLKAF-OH)
- IC50 (HLA B*1501): 1.7 nM
- IC50 (HLA B*1503): 0.37 nM

SMILES: CC[C@H](C)[C@H](NC(=O)[C@H](CO)NC(=O)[C@@H](N)Cc1ccccc1)C(=O)N[C@@H](Cc1ccc(O)cc1)C(=O)N[C@@H](CO)C(=O)N[C@H](C(=O)N[C@@H](CO)C(=O)N[C@@H](CS)C(=O)N[C@@H](Cc1ccccc1)C(=O)O)C(C)C [3102.1330] (H-FSIYSVSCF-OH)
- IC50 (HLA B*1501): 3.1 nM
- IC50 (HLA B*1503): 7.6 nM

SMILES: CC(C)C[C@H](NC(=O)[C@H](CO)NC(=O)[C@H](CO)NC(=O)CNC(=O)[C@H](CO)NC(=O)[C@H](CCCCN)NC(=O)[C@H](C)NC(=O)[C@H](CCC(N)=O)NC(=O)[C@@H](N)CC(C)C)C(=O)O [3102.1276] (H-LQAKSGSSL-OH)
- IC50 (HLA B*1501): 4.6 nM
- IC50 (HLA B*1503): 0.33 nM

SMILES: C[C@@H](O)[C@H](NC(=O)[C@H](Cc1ccccc1)NC(=O)[C@H](CO)NC(=O)[C@@H](N)CCCNC(=N)N)C(=O)N[C@@H](Cc1ccccc1)C(=O)N[C@@H](CCCCN)C(=O)N[C@@H](CCC(=O)O)C(=O)NCC(=O)N[C@@H](Cc1ccccc1)C(=O)O [3102.0988] (H-RSFTFKEGF-OH)
- IC50 (HLA B*1501): 35 nM

SMILES: CC[C@H](C)[C@H](NC(=O)[C@@H](NC(=O)[C@@H](N)CC(C)C)[C@@H](C)CC)C(=O)N[C@@H](CCCCN)C(=O)N[C@@H](CO)C(=O)N[C@@H](CC(=O)O)C(=O)N[C@@H](Cc1c[nH]cn1)C(=O)N[C@@H](CCC(=O)O)C(=O)N[C@@H](Cc1ccccc1)C(=O)O [3102.0804] (H-LIIKSDHEF-OH)
- IC50 (HLA B*1501): 1.6 nM

SMILES: CSCC[C@H](NC(=O)[C@H](Cc1c[nH]cn1)NC(=O)[C@@H]1CCCN1C(=O)[C@H](CC(C)C)NC(=O)[C@H](Cc1ccccc1)NC(=O)[C@H](CC(N)=O)NC(=O)[C@H](Cc1c[nH]cn1)NC(=O)[C@H](CC(C)C)NC(=O)[C@@H](N)CCSC)C(=O)O [3102.0846] (H-MLHNFLPHM-OH)
- IC50 (HLA B*1501): 41 nM

SMILES: CC[C@H](C)[C@H](NC(=O)[C@H](CC(N)=O)NC(=O)[C@H](C)NC(=O)[C@H](CCCNC(=N)N)NC(=O)CNC(=O)[C@@H](N)CC(C)C)C(=O)N[C@H](C(=O)N[C@@H](Cc1c[nH]cn1)C(=O)N[C@@H](Cc1ccccc1)C(=O)O)[C@@H](C)O [3102.1006] (H-LGRANITHF-OH)
- IC50 (HLA B*1501): 6.7 nM
